Here are results for 13 compounds from ChEMBL document CHEMBL4321806 (J Med Chem, 2019).

pEC50, pIC50: −log10 of the molar value. Activity calls are given as the source filed them. The calls are words filed in the database; no cut-off is given here.

Series [1] is described as follows: Cytotoxicity against mouse L929 cells assessed as reduction in cell viability.
The next series concerns NIH3T3. As to the kind of experiment: Cytotoxicity against mouse 3T3 cells assessed as reduction in cell viability. In kind it is cell-based.
The test system of the next series is HFF-1. Kind of series: Cytotoxicity against human HFF1 cells assessed as reduction in cell viability. In kind it is cell-based.
Series [2] addresses T1, Broad substrate specificity ATP-binding cassette transporter ABCG2 (Homo sapiens, UniProt Q9UNQ0).
T1 sequence (Q9UNQ0 whole entry): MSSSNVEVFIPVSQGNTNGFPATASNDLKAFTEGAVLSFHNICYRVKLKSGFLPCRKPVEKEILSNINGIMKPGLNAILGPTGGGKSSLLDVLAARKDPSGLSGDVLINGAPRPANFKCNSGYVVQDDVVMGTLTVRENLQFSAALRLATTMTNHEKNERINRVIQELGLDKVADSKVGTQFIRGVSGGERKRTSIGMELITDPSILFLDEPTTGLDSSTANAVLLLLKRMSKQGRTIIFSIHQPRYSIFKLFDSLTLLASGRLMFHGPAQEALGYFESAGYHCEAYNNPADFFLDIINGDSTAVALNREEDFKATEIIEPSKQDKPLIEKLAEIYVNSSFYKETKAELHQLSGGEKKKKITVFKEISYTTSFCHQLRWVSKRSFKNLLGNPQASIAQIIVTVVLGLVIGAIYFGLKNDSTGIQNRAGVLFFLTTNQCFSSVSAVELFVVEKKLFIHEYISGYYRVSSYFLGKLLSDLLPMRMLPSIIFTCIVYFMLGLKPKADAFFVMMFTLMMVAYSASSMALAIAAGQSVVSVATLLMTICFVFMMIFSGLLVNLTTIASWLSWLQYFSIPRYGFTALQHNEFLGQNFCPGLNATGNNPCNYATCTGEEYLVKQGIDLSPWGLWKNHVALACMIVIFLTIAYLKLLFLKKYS
Kind of series: Inhibition of BCRP (unknown origin).

Series [3] concerns the target T1, Broad substrate specificity ATP-binding cassette transporter ABCG2. Kind of series: Inhibition of BCRP (unknown origin) expressed in human HEK293/R2 cells assessed as increase in intracellular topotecan accumulation by measuring fold change at 1 uM after 120 mins in presence of topotecan by flow cytometry analysis relative to control. The following applies: 2 h. A general note: In flow cytometry, cells or beads pass a laser one at a time.

Series [4] concerns HEK293. As to the kind of experiment: Effect on intracellular topotecan level in human HEK293 cells at 5 uM up to 15 mins by flow cytometric analysis. In kind it is functional, cell-based.
For a further series, the species on record is Homo sapiens. Kind of series: Effect on BCRP protein expression in human HEK293/R2 cells at 1 to 3 uM after 4 days by flow cytometric analysis. Type of series: functional, cell-based.
The target of series [5] is T1, Broad substrate specificity ATP-binding cassette transporter ABCG2. Kind of series: Inhibition of vanadate sensitive BCRP ATPase activity in human S1-M1-80 cell membranes preincubated for 30 mins followed by ATP addition and measured after 1 hr by colorimetric assay.
Series [6] in a line: Antiproliferative activity against human LCC6 cells assessed as reduction in cell viability after 5 days by MTS/PMS assay. The following applies: LCC-6, 120 h. In kind it is functional, cell-based.
For another series, the system named is 2008. As to the kind of experiment: Antiproliferative activity against human 2008 cells assessed as reduction in cell viability after 5 days by MTS/PMS assay. Type of series: functional, cell-based. The following applies: Homo sapiens, 2008, 120 h.
The test system of series [7] is HEK293. As to the kind of experiment: Cytotoxicity against human HEK293 cells assessed as reduction in cell viability after 5 days by MTS/PMS assay. The following applies: HEK293, 120 h. Type of series: cell-based.

For orientation: pIC50 means the negative decadic logarithm of the IC50, by convention in mol/L. For orientation: pEC50 means the negative decadic logarithm of the EC50, by convention in mol/L.

Regarding `COC(=O)c1cccc(COc2c(-c3ccc(OCCOCCn4cc(CCCc5cn(CCOCCOc6ccc(-c7oc8ccccc8c(=O)c7OCc7cccc(C(=O)OC)c7)cc6)nn5)nn4)cc3)oc3ccccc3c2=O)c1`, the negative logarithm of the IC50 (pIC50) (in [1]; with NIH3T3; in the series with HFF-1) was less than 4.00 throughout.
As for `COC(=O)c1cccc(COc2c(-c3ccc(OCCOCCn4cc(CN(Cc5cn(CCOCCOc6ccc(-c7oc8ccccc8c(=O)c7OCc7cccc(C(=O)OC)c7)cc6)nn5)c5ccccc5)nn4)cc3)oc3ccccc3c2=O)c1`, the pIC50 (in [1]; in the series with NIH3T3; with HFF-1) was less than 4.00 in each case.
Regarding `COC(=O)c1cccc(COc2c(-c3ccc(OCCOCCOCCn4cc(CN(Cc5ccccc5)Cc5cn(CCOCCOCCOc6ccc(-c7oc8ccccc8c(=O)c7OCc7cccc(C(=O)OC)c7)cc6)nn5)nn4)cc3)oc3ccccc3c2=O)c1`, the pIC50 (in [1]; with NIH3T3; with HFF-1) was less than 4.00 in each case.
`COC(=O)c1cccc(COc2c(-c3ccc(OCCOCCOCCn4cc(CN(Cc5cn(CCOCCOCCOc6ccc(-c7oc8ccccc8c(=O)c7OCc7cccc(C(=O)OC)c7)cc6)nn5)c5ccccc5)nn4)cc3)oc3ccccc3c2=O)c1`: the negative logarithm of the IC50 (pIC50) (in series [1]; with NIH3T3; in the series with HFF-1) was less than 4.00 in each case.
For `COC(=O)c1cccc(COc2c(-c3ccc(OCCOCCn4cc(CN(Cc5ccccc5)Cc5cn(CCOCCOc6ccc(-c7oc8ccccc8c(=O)c7OCc7cccc(C(=O)OC)c7)cc6)nn5)nn4)cc3)oc3ccccc3c2=O)c1`, the pIC50 (in series [1]; in the series on NIH3T3; in the series on HFF-1) was less than 4.00 each time.
The compound `COc1cc2c(cc1OC)CN(CCc1ccc(NC(=O)c3cc(OC)c(OC)cc3NC(=O)c3cnc4ccccc4c3)cc1)CC2` showed a pEC50 in series [2] of 7.00.
Regarding `COC(=O)c1cccc(COc2c(-c3ccc(OCCOCCn4cc(COCc5cn(CCOCCOc6ccc(-c7oc8ccccc8c(=O)c7OCc7cccc(C(=O)OC)c7)cc6)nn5)nn4)cc3)oc3ccccc3c2=O)c1`, the negative-log IC50 (pIC50) (in series [1]; in the series with NIH3T3; in the series with HFF-1) was less than 4.00 each time.
On to `COc1ccc2c3c([nH]c2c1)[C@H](CC(C)C)N1C(=O)[C@H](CCC(=O)OC(C)(C)C)NC(=O)[C@@H]1C3`, for which the pIC50 is 4.50 in series [1], less than 4.00 in the series on NIH3T3 and 4.25 with HFF-1.
For `COC(=O)c1cccc(COc2c(-c3ccc(OCCOCCn4cc(-c5cccc(-c6cn(CCOCCOc7ccc(-c8oc9ccccc9c(=O)c8OCc8cccc(C(=O)OC)c8)cc7)nn6)c5)nn4)cc3)oc3ccccc3c2=O)c1`, the pIC50 (in series [1]; with NIH3T3; in the series on HFF-1) was less than 4.00 throughout. In [3], the FC is 11 to 12. Besides, the outcome in the series on HEK293 [4] and in the series listed under Homo sapiens was inactive. Moreover, in series [5], the “inhibition (INH)” value was “Dose-dependent effect”.
For the compound `COC(=O)c1cccc(COc2c(-c3ccc(OCCOCCOCCn4cc(-c5ccc(-c6cn(CCOCCOCCOc7ccc(-c8oc9ccccc9c(=O)c8OCc8cccc(C(=O)OC)c8)cc7)nn6)cc5)nn4)cc3)oc3ccccc3c2=O)c1`, the pIC50 (in series [1]; in the series with NIH3T3; in the series on HFF-1) was less than 4.00 each time.
For the compound `COC(=O)c1cccc(COc2c(-c3ccc(OCCOCCOCCn4cc(-c5cccc(-c6cn(CCOCCOCCOc7ccc(-c8oc9ccccc9c(=O)c8OCc8cccc(C(=O)OC)c8)cc7)nn6)c5)nn4)cc3)oc3ccccc3c2=O)c1`, the pIC50 (in series [1]; in the series on NIH3T3; in the series with HFF-1) was less than 4.00 throughout.
As for `O=C1c2c(O)ccc(O)c2C(=O)c2c(NCCNCCO)ccc(NCCNCCO)c21` [MITOXANTRONE], the pIC50 in series [6] is 7.43; with 2008, 8.11; in the series on HEK293 [7] it was 7.93.
In the case of `COc1ccc2c3c([nH]c2c1)[C@H](C=C(C)C)N1C(=O)[C@@H]2CCCN2C(=O)[C@@H]1C3` [FUMITREMORGIN], in series [2], the pEC50 was 5.30 to 6.00.
